# Experimental data as given in patent US7728028B2, “Substituted imidazoline compounds” (Gruenenthal GmbH, priority 2005, dated 2010).
# Molecular target: T1, human μ-opiate receptor (Homo sapiens, UniProt P35372)
# T1 construct: purchased PerkinElmer Life Sciences, Zaventem, Belgium RB-HOM; host or cells: CHO-K1 cells (recombinant expression; membrane preparation)
# Test: Affinity for the human μ-opiate receptor ([3H]-naloxone displacement, SPA)
# Details: Table 1, aldehydes; test substance 1 μmole/l; inhibition of specific [3H]-naloxone binding; CHO-K1 membranes; read-out: μ-Opioid receptor, % inhibition [1 μM]
# Outline: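 CHO-K1 membranes expressing the receptor, incubated 90 min at room temperature with 1 nmol/l [3H]-naloxone and WGA-SPA beads in 50 mmol/l Tris-HCl with 0.06% BSA. Non-specific binding defined with 100 μmol/l naloxone. Value is % inhibition of specific binding at 1 μmol/l test substance.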
# T1 sequence (P35372 whole entry): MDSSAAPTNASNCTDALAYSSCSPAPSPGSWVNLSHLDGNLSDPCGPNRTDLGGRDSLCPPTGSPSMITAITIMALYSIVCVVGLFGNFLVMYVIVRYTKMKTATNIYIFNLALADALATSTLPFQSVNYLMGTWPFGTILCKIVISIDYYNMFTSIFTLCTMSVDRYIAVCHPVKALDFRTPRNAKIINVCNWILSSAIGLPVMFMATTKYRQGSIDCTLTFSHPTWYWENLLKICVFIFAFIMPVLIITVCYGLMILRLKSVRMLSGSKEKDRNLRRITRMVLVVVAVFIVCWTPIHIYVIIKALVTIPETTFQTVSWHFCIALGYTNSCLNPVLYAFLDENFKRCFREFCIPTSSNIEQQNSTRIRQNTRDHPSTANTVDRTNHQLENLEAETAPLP
row,Compound,inhibition at 1 µM
1,"CN(C)C(c1ccc(Cl)cc1)C1CCC(CC=O)CC1 (stereo not drawn) [Example 10c, {4-[(4-Chlorophenyl)-dimethylaminomethyl]-cyclohexyl}-acetaldehyde]",50%

# Same assay, conditions: Table 2, Examples 11-161; test substance 1 μmole/l; inhibition of specific [3H]-naloxone binding; CHO-K1 membranes; read-out: μ-Opioid receptor, % inhibition [1 μM]
row,Compound,inhibition at 1 µM
1,"CCCN1C=NC(CCC(=O)OC)(C(=O)OC)C1CC1CCC(C(c2ccc(Cl)cc2)N(C)C)CC1 (stereo not drawn) [Example 61, 5-{4-[(4-chlorophenyl)-dimethylaminomethyl]-cyclohexylmethyl}-4-(2-methoxycarbonylethyl)-1-propyl-4,5-dihydro-1H-imidazole-4-carboxylic acid methyl ester]",93%
2,"COC(=O)C1(CSCc2ccccc2)N=CN(C2CCCCC2)C1C1CCC(C(c2cccc(F)c2)N(C)C)CC1 (stereo not drawn) [Example 116, 4-benzylsulfanylmethyl-1-cyclohexyl-5-{4-[dimethylamino-(3-fluorophenyl)-methyl]-cyclohexyl}-4,5-dihydro-1H-imidazole-4-carboxylic acid methyl ester]",101%
3,"CCCN1C=NC(CSC)(C(=O)OC)C1CC1CCC(C(c2ccc(Cl)cc2)N(C)C)CC1 (stereo not drawn) [Example 63, 5-{4-[(4-chlorophenyl)-dimethylaminomethyl]-cyclohexylmethyl}-4-methylsulfanylmethyl-1-propyl-4,5-dihydro-1H-imidazole-4-carboxylic acid methyl ester]",97%
4,"COC(=O)C1(CSCc2ccccc2)N=CN(C2CCCCC2)C1CC1CCC(C(c2cccc(F)c2)N(C)C)CC1 (stereo not drawn) [Example 150, 4-benzylsulfanylmethyl-1-cyclohexyl-5-{4-[dimethylamino-(3-fluorophenyl)-methyl]-cyclohexylmethyl}-4,5-dihydro-1H-imidazole-4-carboxylic acid methyl ester]",98%
5,"COC(=O)C1(Cc2ccc(Cl)cc2)N=CN(CCc2ccccc2)C1C1CCC(C(c2ccc(Cl)cc2)N(C)C)CC1 (stereo not drawn) [Example 41, 4-(4-chlorobenzyl)-5-{4-[(4-chlorophenyl)-dimethylaminomethyl]-cyclohexyl}-1-phenethyl-4,5-dihydro-1H-imidazole-4-carboxylic acid methyl ester]",79%
6,"COC(=O)C1(CSC)N=CN(Cc2ccccc2)C1CC1CCC(C(c2ccc(Cl)cc2)N(C)C)CC1 (stereo not drawn) [Example 100, 1-benzyl-5-{4-[(4-chlorophenyl)-dimethylaminomethyl]-cyclohexylmethyl}-4-methylsulfanylmethyl-4,5-dihydro-1H-imidazole-4-carboxylic acid methyl ester]",97%
7,"COC(=O)C1(CC(C)C)N=CN(Cc2ccccc2)C1C1CCC(C(c2cccc(F)c2)N(C)C)CC1 (stereo not drawn) [Example 46, 1-benzyl-5-{4-[dimethylamino-(3-fluorophenyl)-methyl]-cyclohexyl}-4-isobutyl-4,5-dihydro-1H-imidazole-4-carboxylic acid methyl ester]",92%
8,"CCCC1(C(=O)OC)N=CN(C2CCCCC2)C1CC1CCC(C(c2cccc(F)c2)N(C)C)CC1 (stereo not drawn) [Example 102, 1-cyclohexyl-5-{4-[dimethylamino-(3-fluorophenyl)-methyl]-cyclohexylmethyl}-4-propyl-4,5-dihydro-1H-imidazole-4-carboxylic acid methyl ester]",91%
9,"CCCCC1(C(=O)OC)N=CN(CCc2ccccc2)C1CC1CCC(C(c2ccc(Cl)cc2)N(C)C)CC1 (stereo not drawn) [Example 45, 4-butyl-5-{4-[(4-chlorophenyl)-dimethylaminomethyl]-cyclohexylmethyl}-1-phenethyl-4,5-dihydro-1H-imidazole-4-carboxylic acid methyl ester]",97%
10,"CCCN1C=NC(Cc2ccc(Cl)cc2)(C(=O)OC)C1CC1CCC(C(c2ccc(Cl)cc2)N(C)C)CC1 (stereo not drawn) [Example 27, 4-(4-chlorobenzyl)-5-{4-[(4-chlorophenyl)-dimethylaminomethyl]-cyclohexylmethyl}-1-propyl-4,5-dihydro-1H-imidazole-4-carboxylic acid methyl ester]",96%
11,"CCCCN1C=NC(C(=O)OC)(C(C)CC)C1CC1CCC(C(c2ccc(Cl)cc2)N(C)C)CC1 (stereo not drawn) [Example 88, 1-butyl-4-sec-butyl-5-{4-[(4-chlorophenyl)-dimethylaminomethyl]-cyclohexylmethyl}-4,5-dihydro-1H-imidazole-4-carboxylic acid methyl ester]",98%
12,"CCCCN1C=NC(CCC(=O)OC)(C(=O)OC)C1C1CCC(C(c2ccc(Cl)cc2)N(C)C)CC1 (stereo not drawn) [Example 68, 1-butyl-5-{4-[(4-chlorophenyl)-dimethylaminomethyl]-cyclohexyl}-4-(2-methoxycarbonylethyl)-4,5-dihydro-1H-imidazole-4-carboxylic acid methyl ester]",90%
13,"CCCCN1C=NC(CSC)(C(=O)OC)C1CC1CCC(C(c2ccc(F)cc2)N(C)C)CC1 (stereo not drawn) [Example 77, 1-butyl-5-{4-[dimethylamino-(4-fluorophenyl)-methyl]-cyclohexylmethyl}-4-methylsulfanylmethyl-4,5-dihydro-1H-imidazole-4-carboxylic acid methyl ester]",88%
14,"CCC(C)C1(C(=O)OC)N=CN(C2CCCCC2)C1CC1CCC(C(c2ccc(F)cc2)N(C)C)CC1 (stereo not drawn) [Example 152, 4-sec-butyl-1-cyclohexyl-5-{4-[dimethylamino-(4-fluorophenyl)-methyl]-cyclohexylmethyl}-4,5-dihydro-1H-imidazole-4-carboxylic acid methyl ester]",93%
15,"COC(=O)CCC1(C(=O)OC)N=CN(C2CCCCC2)C1C1CCC(C(c2cccc(F)c2)N(C)C)CC1 (stereo not drawn) [Example 115, 1-cyclohexyl-5-{4-[dimethylamino-(3-fluorophenyl)-methyl]-cyclohexyl}-4-(2-methoxycarbonylethyl)-4,5-dihydro-1H-imidazole-4-carboxylic acid methyl ester]",98%
16,"CCCCC1(C(=O)OC)N=CN(CCc2ccccc2)C1C1CCC(C(c2cccc(F)c2)N(C)C)CC1 (stereo not drawn) [Example 39, 4-butyl-5-{4-[dimethylamino-(3-fluorophenyl)-methyl]-cyclohexyl}-1-phenethyl-4,5-dihydro-1H-imidazole-4-carboxylic acid methyl ester]",88%
17,"COC(=O)C1(CSC)N=CN(Cc2ccccc2)C1C1CCC(C(c2cccc(F)c2)N(C)C)CC1 (stereo not drawn) [Example 96, 1-benzyl-5-{4-[dimethylamino-(3-fluorophenyl)-methyl]-cyclohexyl}-4-methylsulfanylmethyl-4,5-dihydro-1H-imidazole-4-carboxylic acid methyl ester]",97%
18,"COC(=O)CCC1(C(=O)OC)N=CN(CCc2ccccc2)C1CC1CCC(C(c2ccc(F)cc2)N(C)C)CC1 (stereo not drawn) [Example 83, 5-{4-[dimethylamino-(4-fluorophenyl)-methyl]-cyclohexylmethyl}-4-(2-methoxycarbonylethyl)-1-phenethyl-4,5-dihydro-1H-imidazole-4-carboxylic acid methyl ester]",77%
19,"COC(=O)C1(CCSC)N=CN(CCc2ccccc2)C1CC1CCC(C(c2ccc(F)cc2)N(C)C)CC1 (stereo not drawn) [Example 133, 5-{4-[dimethylamino-(4-fluorophenyl)-methyl]-cyclohexylmethyl}-4-(2-methylsulfanylethyl)-1-phenethyl-4,5-dihydro-1H-imidazole-4-carboxylic acid methyl ester]",84%
20,"COC(=O)C1(Cc2ccc(Cl)cc2)N=CN(C2CCCCC2)C1CC1CCC(C(c2cccs2)N(C)C)CC1 (stereo not drawn) [Example 20, 4-(4-chlorobenzyl)-1-cyclohexyl-5-[4-(dimethylamino-thiophen-2-yl-methyl)-cyclohexylmethyl]-4,5-dihydro-1H-imidazole-4-carboxylic acid methyl ester]",95%
21,"COC(=O)CCC1(C(=O)OC)N=CN(C2CCCCC2)C1CC1CCC(C(c2ccc(F)cc2)N(C)C)CC1 (stereo not drawn) [Example 151, 1-cyclohexyl-5-{4-[dimethylamino-(4-fluorophenyl)-methyl]-cyclohexylmethyl}-4-(2-methoxycarbonylethyl)-4,5-dihydro-1H-imidazole-4-carboxylic acid methyl ester]",95%
22,"CCCC1(C(=O)OC)N=CN(Cc2ccccc2)C1CC1CCC(C(c2cccc(F)c2)N(C)C)CC1 (stereo not drawn) [Example 138, 1-benzyl-5-{4-[dimethylamino-(3-fluorophenyl)-methyl]-cyclohexylmethyl}-4-propyl-4,5-dihydro-1H-imidazole-4-carboxylic acid methyl ester]",101%
23,"COC(=O)C1(Cc2ccc(Cl)cc2)N=CN(Cc2ccccc2)C1C1CCC(C(c2cccc(F)c2)N(C)C)CC1 (stereo not drawn) [Example 47, 1-benzyl-4-(4-chlorobenzyl)-5-{4-[dimethylamino-(3-fluorophenyl)-methyl]-cyclohexyl}-4,5-dihydro-1H-imidazole-4-carboxylic acid methyl ester]",74%
24,"CCCCC1(C(=O)OC)N=CN(CCC)C1CC1CCC(C(c2ccc(Cl)cc2)N(C)C)CC1 (stereo not drawn) [Example 28, 4-butyl-5-{4-[(4-chlorophenyl)-dimethylaminomethyl]-cyclohexylmethyl}-1-propyl-4,5-dihydro-1H-imidazole-4-carboxylic acid methyl ester]",97%
25,"CCCC1(C(=O)OC)N=CN(Cc2ccccc2)C1CC1CCC(C(CCc2ccccc2)N(C)C)CC1 (stereo not drawn) [Example 144, 1-benzyl-5-[4-(1-dimethylamino-3-phenylpropyl)-cyclohexylmethyl]-4-propyl-4,5-dihydro-1H-imidazole-4-carboxylic acid methyl ester]",90%
26,"COC(=O)C1(CC(C)C)N=CN(CCc2ccccc2)C1CC1CCC(C(c2ccc(Cl)cc2)N(C)C)CC1 (stereo not drawn) [Example 43, 5-{4-[(4-chlorophenyl)-dimethylaminomethyl]-cyclohexylmethy}-4-isobutyl-1-phenethyl-4,5-dihydro-1H-imidazole-4-carboxylic acid methyl ester]",97%
